Test results published in US8053417B2, “Hexosylceramides as adjuvants and their uses in pharmaceutical compositions” (Helmholtz-Zentrum fuer Infektionsforschung GmbH, priority 2005, dated 2011).

Assays:
[1] = background statement; cited from earlier work
C57BI6 mice = assay: VITAL assay (in vivo CTL), lysis of OVA peptide-pulsed target cells in immunized mice; conditions: 10 μg adjuvant with 50 μg Ovalbumin
Experimental: Experimental protocol: Six to eight weeks-old female C57BI6 mice were purchased from Harlan Winkelmann GmbH (Borchen, Germany) and treated in accordance with local and European Community guidelines. Groups of 5 mice each were immunized on day 1, 14 and 28 with 50 μg Ovalbumin (Sigma, Germany) alone or with 10 μg alphaGalCerMPEG or alphaGalCer. For intranasal immunization, 10 μl were applied to each naris, whereas for the s.c. injection Ovalbumin (ova) with or without alphaGalCerMPEG or alphaGalCer was resuspended in a volume of 50 μl PBS per animal. The determination of the in vivo lymphocyte-mediated cytotoxicity followed a protocol described by Hermans et. Al. (Herman, I. F., et. Al., 2004, The vital assay, J Immunol Methods, 285, 25-40). A suspension of splenocytes from naïve mice was depleted of red cells and split into two equal portions. The target cell preparation was labelled with a high concentration (1 μM) of CFSE (Molecular Probes) and pulsed for 1 h at 37° C. with the dominant OVA peptide (aa 257-264) at a concentration of 15 μg/ml. […] Cells from spleens were analyzed by flow cytometry after 16 h and 40 h, with the FACScalibur using the software BD cell Quest Pro. […] Cytotoxic activity was assessed with any variability in the proportion of cells in the different target populations assessed in a non-immunized control group for CTL assays.

[2] = system: in vitro re-stimulated spleen cells; assay: Cytometric Bead Array of cytokines in supernatants of in vitro re-stimulated spleen cells from vaccinated mice; type: in vivo; conditions: parenteral administration (s.c.) with β-Gal
Experimental: To characterize the type of Th response stimulated following immunization, the content of IFN-γ, IL-2, IL-6, IL-10, MCP-1, and TNFα was measured in supernatants from in vitro re-stimulated spleen cells (FIGS. 8 and 9) by the Cytometric Bead Array. Culture supernatants from proliferating cells were collected on days 2 and 4, and stored at −70° C. Determinations of IFN-γ, TNFα, IL-2, IL-6, IL-10 and MCP-1 were performed by cytometric bead array analysis using the commercial kit from BectonDickinson, according to the manufacturer's instructions. A standard curve was generated for each cytokine by using the corresponding recombinant murine cytokines (Pharmingen). Probes were incubated at room temperature for additional 2 h. The probes were analyzed subsequently by flow cytometry as described in the protocol of BD.

YAC-1 cells = assay: 51Cr-release assay with splenocytes of injected mice as effectors and YAC-1 cells as targets for NK cells; type: in vivo
Experimental: Experimental protocol: Mice received 10 μg of alphaGalCer or alphaGalCerMPEG by s.c. route, whereas control animals were injected by intraperitoneal route with 100 μg of CpG. After 2 days, they were sacrified and their splenocytes were used as effector cells in a standard 51Cr-release assay using YAC-1 cells as targets for NK cells. Effector cells were washed and their concentration was adjusted to 1×10^6/ml. In parallel, target cells were incubated in RPMKI medium without FCS containing 100 μCi of 51Cr for 2 h. Then, target cells were extensively washed with RPMI medium containing FCS and co-incubated in triplicates with effector cells at different effector:target (E:T) ratios. After 4 h, cells were centrifuged and the radioactivity present in supernatants was measured by scintillation counting. Maximal lysis was determined after lysis with 5% […], whereas spontaneous lysis was measured in supernatants of untreated target cells. Results are expressed as percentage of lysed cells, accordingly to the formula: (sample−spontaneous lysis)/(maximal lysis−spontaneous lysis)×100.

[3] = system: Unstimulated spleen cells; assay: In vitro stimulation of unstimulated spleen cells ([3H]thymidine uptake); type: cell-based, mice; conditions: 4 days
Experimental: Experimental protocol: Spleens from female BALB/c (H-2d, Harlan Winkelmann) or CD1d−/− (Jackson Laboratories) mice of 6 weeks of age were removed and pooled for analysis of cellular immune responses. Cells were grown in RPMI 1640 supplemented with 10% fetal calf serum, 100 U/ml of penicillin, 50 μg/ml of streptomycin, 5×10^−5 M 2-mercaptoethanol and 1 mM L-glutamine (GIBCO BRL, Karlsruhe, Germany) and maintained at 37° C. in a humidified 5% CO2 atmosphere. Spleen cell suspensions were adjusted to 5×10^6 cells/ml in complete medium, cells were seeded with 100 μl per well in a flat-bottomed 96-well microtiter plate (Nunc) and plates were incubated for 4 days. Unstimulated spleen cells were incubated in the presence of different concentrations of the new adjuvants to analyze the in vitro stimulation capacity of alphaGalCerMPEG. T cell mediated immune responses were investigated at day 38 by measuring the proliferation of cells recovered from spleens after in vitro restimulation with β-Gal. […] Cells were then harvested on paper filters (Filtermat A; Wallac, Freiburg, Germany) by using a cell harvester (Inotech, Wohlen, Switzerland), and the amount of incorporated [3H]thymidine into the DNA of proliferating cells was determined by a β-scintillation counter (Wallac 1450, Micro-Trilux). The results are expressed as the arithmetic mean of [3H]thymidine uptake in cpm.

[4] = system: spleens of vaccinated mice; assay: Elispot of beta-Gal specific cytokine secreting cells in spleens of vaccinated mice; type: in vivo
Experimental: Experimental protocol: Spleens from vaccinated mice were removed and pooled for analysis of cellular immune responses. The protocol for vaccination was identical to the protocol described in Example 3. Cells were grown in RPMI 1640 supplemented with 10% fetal calf serum, 100 U/ml of penicillin, 50 μg/ml of streptomycin, 5×10^−5 M 2-mercaptoethanol and 1 mM L-glutamine (GIBCO BRL, Karlsruhe, Germany) and maintained at 37° C. in a humidified 5% CO2 atmosphere. Lymph node and spleen cell suspensions were adjusted to 5×10^6 cells/ml in complete medium, cells were seeded with 100 μl per well in a flat-bottomed 96-well microtiter plate (Nunc) and plates were incubated 24 h (IFNgamma) or 48 h (IL-2 and IL-4) in the absence or presence of a beta-Gal peptide (TPHARIGL) encompassing a MHC class I-restricted epitope (for IFNgamma) or the beta-Gal protein (for IL-2 and IL-4), at a concentration of 10 μM. Then, cells were removed and the plates processed according to manufacture's instructions. Colored spots were counted with a C.T.L. Elispot reader and analysed using the ImmunoSpot image analyzer software v3.2.
Thus, to further characterize the T helper responses, the number of beta-Gal specific IFNgamma, IL-2 and IL-4 secreting cells present in spleens of vaccinated mice was determined. In agreement with the above results for IgG isotypes, high numbers of IL-4 secreting cells were detected in mice receiving alphaGalCerMPEG or alphaGalCer (FIG. 10).

SMILES: CCCCCCCCCCCCCCCCCCCCCCCCCC(=O)N[C@@H](CO[C@H]1O[C@H](CO)[C@H](O)[C@H](O)[C@H]1O)[C@H](O)[C@H](O)CCCCCCCCCCCCCC [alphaGalCer, alpha-Galactosylceramide]
- solubility in aqueous solvents [1]: poor
- fold increase of the cytotoxic potential of splenocytes with respect to OVA antigen alone (5%) (C57BI6 mice): 6.4 fold
- specific lysis of peptide-coated target cells (C57BI6 mice; day 1, 14 and 28): 30%
- secretion of IFNgamma [2]: significant enhanced secretion
- secretion of IL-10 [2]: significant enhanced secretion
- secretion of TNFalpha [2]: significant enhanced secretion
- lysis of YAC-1 cells (YAC-1 cells; effector:target ratio 50:1, splenocytes 2 days after injection): 34%
- lysis of YAC-1 cells (YAC-1 cells; effector:target ratio 100:1, splenocytes 2 days after injection): 37%
- stimulation of unstimulated spleen cells with different concentrations [3]: no dose dependent increase
- number of IL-4 secreting cells ([4]; spleens of vaccinated mice, beta-Gal protein 10 μM, 48 h): high numbers
- number of IFNgamma secreting cells ([4]; stimulation with MHC class I restricted peptide, 24 h): increased to a significant minor extent
- number of IL-2 secreting cells ([4]; stimulation with β-Gal protein, 48 h): increased to a significant minor extent
